Laboratory results published in patent EP0002259B1, “Hydantoin derivatives and salts thereof, their synthesis and pharmaceutical formulations” (THE WELLCOME FOUNDATION LIMITED, priority 1977, dated 1979).

What was measured:
[1] = system: platelets in fresh human platelet rich plasma (PRP); assay: Inhibition of platelet aggregation (ADP-stimulated, Born aggregometer), activity compared to PGE1; format: cell-based; details: 37°C for 1 minute, ADP 5 µm
Description: Aggregation of platelets in 1 ml of fresh human platelet rich plasma (PRP) was monitored in a Born aggregometer.
The compound to be tested was added to the PRP at the desired concentration, and the resulting mixture incubated at 37°C for 1 minute after which platelet aggregation was stimulated by the addition of adenosine diphosphate (ADP) to a concentration of 5 µm.
The antiaggregatory effect of the compound was assessed by measuring the percentage inhibition of platelet aggregation in the presence of the compound as compared with when it was absent. The percentage inhibitions at various concentrations of hydantoin and prostaglandin E, (PGE,) were established and compared to show activity compared to PGE,.

[2] = Solubility in volatile solvent (tablet formulation); format: physicochemical; details: methanol, ethanol
Description: The compound was dissolved in a volatile solvent. […] The mixture was then pressed to tablets, each 226 mg in weight.

[3] = system: Male normotensive rats Wistar (Charles River) strain; assay: Cardiovascular effects in anaesthetised rats (hypotensive effect compared with prostacyclin); format: in vivo; details: intravenous injection in physiological saline
Description: Male normotensive rats Wistar (Charles River) strain, ([…]) were anesthetised (chloroform) prior to cannulation to left femoral vein and anaestesia maintained by intravenous chloralose (60 mg/kg). Pulsatile blood pressure was recorded from the left femoral artery with an electronic transducer (Bell and Howell Type 4-327 L221) and integrated heart rate was measured with a cardiotachometer triggered from the arterial pressure waves.
The test compound (less polar diastereomer of the compounds of Example 2) was administered as a solution in physiological saline by intravenous injection via the femoral cannula. The responses recorded were allowed to return to the preinjection levels between successive administrations.

## O=C(O)CCC/C=C\CC1C(=O)NC(=S)N1CCC(O)C1CCCCC1 (centres unmarked) [Example 6 more, 5-(6-carboxyhex-2Zenyl)-1-(3-cyclohexyl-3-hydroxypropyl)-2-thiohydantoin]
[1]; activity relative to PGE1, listed as 6 more
  Inhibition of Platelet Aggregation (X PGE1): 0,02 X PGE1

## CC(C)(C)CC(O)CCN1C(=S)NC(=O)C1CCCCCCC(=O)O (centres unmarked) [Example 2 more, 5-(6-carboxyhexyl)-1-(5,5-dimethyl-3-hydroxyhexyl)-2-thiohydantoin]
[1]; activity relative to PGE1, listed as 2 more
  Inhibition of Platelet Aggregation (X PGE1): 0,01 X PGE1

## CCCCCC(O)CCN1C(=S)NC(=O)C1CCCCCCC(=O)O (centres unmarked) [Example 1 more, 5-(6-carboxyhexyl)-1-(3-hydroxyoctyl)-2-thiohydantoin]
[1]; activity relative to PGE1
  Inhibition of Platelet Aggregation (X PGE1): <0,01 X PGE1

## O=C(O)CCCCCCC1C(=O)NC(=S)N1CCC(O)C1CCCCC1 (single isomer, unassigned) [Example 3 less, 5-(6-carboxyhexyl)-l-(3-cyclohexyl-3-hydroxypropyl)-2-thiohydantoin]
[2]
  solubility: soluble in methanol and in ethanol

## O=C(O)CCCCCCC1C(=O)NC(=S)N1CCC(O)C1CCCC1 (centres unmarked) [Example 5 less, 5-(6-carboxyhexyl)-1-(3-cyclopentyl-3-hydroxypropyl)-2-thiohydantoin]
[1]; activity relative to PGE1
  Inhibition of Platelet Aggregation (X PGE1): 0,03 X PGE1

## O=C(O)CCC/C=C\CC1C(=O)NC(=S)N1CCC(O)C1CCCCC1 (centres unmarked) [Example 6 less, 5-(6-carboxyhex-2Zenyl)-1-(3-cyclohexyl-3-hydroxypropyl)-2-thiohydantoin]
[1]; activity relative to PGE1, listed as 6 less
  Inhibition of Platelet Aggregation (X PGE1): 0,04 X PGE1

## CC(C)(C)CC(O)CCN1C(=S)NC(=O)C1CCCCCCC(=O)O (centres unmarked) [Example 2 less, 5-(6-carboxyhexyl)-1-(5,5-dimethyl-3-hydroxyhexyl)-2-thiohydantoin]
[3]
  hypotensive effect, per cent of the hypotensive effect of prostacyclin: less than one
[1]; activity relative to PGE1, listed as 2 less
  Inhibition of Platelet Aggregation (X PGE1): 0,04 X PGE1
